The values below come from patent US9617256B2 (priority 2007, dated 2017).

Structures are written as SMILES. Values after ≈ are worked out from the molar mass of the structure shown. Some results are limits rather than exact numbers.

For assay [1], the system named is APAE006 in the presence of 8 micrograms per milliliter of polymyxin B nonapeptide. In kind it is cell-based, P. aeruginosa. The following applies: in the presence of 8 micrograms per milliliter of polymyxin B nonapeptide. The gist of the method: (§1)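 Inocula prepared from 0.5 McFarland suspensions (final 3×10^5–7×10^5 CFU/mL) were added to 2-fold drug dilution series in cation-adjusted Mueller-Hinton broth. Plates stood 18-24 hours at 35° C. under ambient air.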

Assay [2] concerns AECO063 (ATCC25922 bearing an acrAB mutation). The assay can be described thus: microbe, parasite or virus in culture. In kind it is cell-based, E. coli. The following applies: Escherichia coli, ATCC25922, read-out: MIC AECO063. The gist of the method:
(§2)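 Growth inhibition was scored by CLSI broth microdilution using cation-adjusted Mueller-Hinton broth and a final inoculum between 3×10^5 and 7×10^5 CFU/mL, incubated 18-24 hours at 35° C.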

The subject of assay [3] is APAE006 (strain of P. aeruginosa in which all efflux pumps are inactivated). The assay can be described thus: microbe, parasite or virus in culture. In kind it is cell-based. The conditions noted are these: Pseudomonas aeruginosa, read-out: MIC APAE006, P. aeruginosa, all efflux pumps inactivated. The gist of the method:
as §1

For another assay, the system named is AECO001 (ATCC25922). In words: MIC broth microdilution, AECO001. It counts as cell-based, E. coli. The following applies: Escherichia coli, ATCC25922, read-out: MIC AECO001. The gist of the method: as §2
On the technique in general: Dilution methods test growth across graded concentrations, often in twofold steps.

Assay [4] has as its system ASAU001 (laboratory strain of S. aureus, ATCC29213). The assay can be described thus: MIC broth microdilution, ASAU001. The following applies: Staphylococcus aureus, ATCC29213, read-out: MIC ASAU001. It counts as cell-based. The gist of the method: as §2
Another assay relates to AECO001 HSA AGP. In words: MIC broth microdilution, AECO001 HSA AGP. It counts as cell-based, E. coli. The following applies: Escherichia coli. The gist of the method: as §2
The subject of a further assay is APAE001 (ATCC27853). The assay can be described thus: MIC broth microdilution, APAE001. It counts as cell-based, P. aeruginosa. The following applies: Pseudomonas aeruginosa, ATCC27853, read-out: MIC APAE001, APAE001 is ATCC27853. The method, boiled down:
as §2

For assay [5], the system named is AABA1060 (clinical isolate of Acinetobacter baumannii). The assay can be described thus: MIC broth microdilution, AABA1060. It counts as cell-based. The following applies: Acinetobacter baumannii, read-out: MIC AABA1060. The gist of the method: as §2

Regarding `C[C@@H](O)[C@H](NC(=O)c1ccc(N2CCN(c3ccc(CN4CCOCC4)cc3)CC2)cc1)C(=O)NO` [Example 43-7, N-((1S,2R)-2-Hydroxy-1-hydroxycarbamoyl-propyl)-4-[4-(4-morpholin-4-ylmethyl-phenyl)-piperazin-1-yl]-benzamide], in assay [1], the “MIC APAE006 + PMBN” value is “A (MIC's of 2.0 μg/mL or less = A)”. For the same molecule, the MIC is 16 to 64 µg/mL (≈ 32.2 to 129 µM) in assay [2]; below 2 µg/mL in assay [3]; above 64 µg/mL in the assay on AECO001 (ATCC25922); above 64 µg/mL in assay [4]; above 64 µg/mL against AECO001 HSA AGP; 16 to 64 µg/mL (≈ 32.2 to 129 µM) with APAE001 (ATCC27853). Further, the MIC in assay [5] is above 64 µg/mL.

`C[C@@H](N)[C@H](NC(=O)c1ccc(C#CC#CC2CC2)cc1)C(=O)NO` [Example 91-2]: the “MIC APAE006 + PMBN” value in assay [1] was “A (MIC's of 2.0 μg/mL or less = A)”. For the same molecule, the MIC in assay [2] is below 2 µg/mL; in assay [3] it was below 2 µg/mL; in the assay with AECO001 (ATCC25922) it was below 2 µg/mL; in assay [4] it was 2 to 16 µg/mL (≈ 6.15 to 49.2 µM); against AECO001 HSA AGP, 2 to 16 µg/mL (≈ 6.15 to 49.2 µM); with APAE001 (ATCC27853), below 2 µg/mL. Besides, the MIC in assay [5] was below 2 µg/mL.

On to `C[C@@H](N)[C@H](NC(=O)c1ccc(C#CC#Cc2ccc(CO)cc2)cc1)C(=O)NO` [Example 82-3], for which the “MIC APAE006 + PMBN” value in assay [1] is listed as “A (MIC's of 2.0 μg/mL or less = A)”. The MIC in assay [2] was below 2 µg/mL; in assay [3], below 2 µg/mL; in the assay on AECO001 (ATCC25922), below 2 µg/mL; in assay [4], 16 to 64 µg/mL (≈ 40.9 to 164 µM); against AECO001 HSA AGP, 16 to 64 µg/mL (≈ 40.9 to 164 µM); with APAE001 (ATCC27853), below 2 µg/mL. In addition, the MIC in assay [5] lay in the range of 2 to 16 µg/mL (≈ 5.11 to 40.9 µM).

`O=CN(O)CCNC(=O)c1ccc(C#Cc2ccc(CN3CCOCC3)cc2)cc1` [Example 127-1, N-[2-(Formyl-hydroxyamino)-ethyl]-4-(4-morpholin-4-ylmethyl-phenylethynyl)-benzamide]: in assay [1], the “MIC APAE006 + PMBN” value is on record as “C (MIC's of greater than 16.0 μg/mL to 64.0 μg/mL = C)”. Besides, the MIC is 2 to 16 µg/mL (≈ 4.91 to 39.3 µM) in assay [2]; 16 to 64 µg/mL (≈ 39.3 to 157 µM) in assay [3]; 16 to 64 µg/mL (≈ 39.3 to 157 µM) in the assay on AECO001 (ATCC25922); above 64 µg/mL in assay [4]; 16 to 64 µg/mL (≈ 39.3 to 157 µM) against AECO001 HSA AGP; above 64 µg/mL with APAE001 (ATCC27853). The MIC in assay [5] was above 64 µg/mL.

In the case of `CO[C@H](C)[C@H](NC(=O)c1ccc(C#C/C=C/c2ccc(CN3CCOCC3)cc2)cc1)C(=O)NO` [Example 97-1, N-((1S,2R)-1-Hydroxycarbamoyl-2-methoxy-propyl)-4-[(E)-4-(4-morpholin-4-ylmethyl-phenyl)-but-3-en-1-ynyl]-benzamide], in assay [1], the “MIC APAE006 + PMBN” value is given as “A (MIC's of 2.0 μg/mL or less = A)”. Further, the MIC in assay [2] was below 2 µg/mL; in assay [3], below 2 µg/mL; with AECO001 (ATCC25922) it was below 2 µg/mL; in assay [4] it was 16 to 64 µg/mL (≈ 33.5 to 134 µM); with AECO001 HSA AGP, below 2 µg/mL; in the assay with APAE001 (ATCC27853) it was 2 to 16 µg/mL (≈ 4.19 to 33.5 µM). In assay [5], the MIC lay within 2 to 16 µg/mL (≈ 4.19 to 33.5 µM).

For `C[C@@H](N)[C@H](NC(=O)c1ccc(C#Cc2ccc(CNCCF)cc2)cc1)C(=O)NO` [Example 118-9], the “MIC APAE006 + PMBN” value in assay [1] was “A (MIC's of 2.0 μg/mL or less = A)”. The MIC was below 2 µg/mL in assay [2]; below 2 µg/mL in assay [3]; below 2 µg/mL in the assay on AECO001 (ATCC25922); 16 to 64 µg/mL (≈ 38.8 to 155 µM) in assay [4]; 2 to 16 µg/mL (≈ 4.85 to 38.8 µM) in the assay with AECO001 HSA AGP; below 2 µg/mL in the assay on APAE001 (ATCC27853). Also, the MIC in assay [5] was in the range of 2 to 16 µg/mL (≈ 4.85 to 38.8 µM).

As to `CC(C)[C@H](NC(=O)c1ccc(/C=C/C#Cc2ccc(CN3CCOCC3)cc2)cc1)C(=O)NO` [Example 110-2], the “MIC APAE006 + PMBN” value in assay [1] is recorded as “A (MIC's of 2.0 μg/mL or less = A)”. The MIC in assay [2] was below 2 µg/mL; in assay [3] it was below 2 µg/mL; with AECO001 (ATCC25922), below 2 µg/mL; in assay [4] it was above 64 µg/mL; in the assay with AECO001 HSA AGP, 2 to 16 µg/mL (≈ 4.33 to 34.7 µM); with APAE001 (ATCC27853), 2 to 16 µg/mL (≈ 4.33 to 34.7 µM). Besides, the MIC in assay [5] fell in the range of 2 to 16 µg/mL (≈ 4.33 to 34.7 µM).

With `O=C(N[C@H](C(=O)NO)C1CCS(=O)(=O)CC1)c1ccc(/C=C/C#Cc2ccc(CN3CCOCC3)cc2)cc1` [Example 110-8], the “MIC APAE006 + PMBN” value in assay [1] is given as “A (MIC's of 2.0 μg/mL or less = A)”. Moreover, the MIC in assay [2] is below 2 µg/mL; in assay [3], below 2 µg/mL; with AECO001 (ATCC25922), below 2 µg/mL; in assay [4] it was above 64 µg/mL; against AECO001 HSA AGP it was 16 to 64 µg/mL (≈ 29 to 116 µM); with APAE001 (ATCC27853) it was 2 to 16 µg/mL (≈ 3.63 to 29 µM). Moreover, the MIC in assay [5] lay within 16 to 64 µg/mL (≈ 29 to 116 µM).

Regarding `C[C@H](O)[C@H](NC(=O)c1ccc(/C=C/C#Cc2ccc(CN3CCOCC3)cc2)cc1)C(=O)NO` [Example 110-5], the “MIC APAE006 + PMBN” value in assay [1] is given as “A (MIC's of 2.0 μg/mL or less = A)”. Moreover, the MIC in assay [2] is below 2 µg/mL; in assay [3], below 2 µg/mL; in the assay with AECO001 (ATCC25922), below 2 µg/mL; in assay [4], above 64 µg/mL; with AECO001 HSA AGP, 2 to 16 µg/mL (≈ 4.31 to 34.5 µM); in the assay on APAE001 (ATCC27853), 2 to 16 µg/mL (≈ 4.31 to 34.5 µM). In addition, in assay [5], the MIC was 2 to 16 µg/mL (≈ 4.31 to 34.5 µM).
